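A five-concentration, 48-hour dose response in 96-well plates underlies each endpoint, interpolated linearly between surrounding concentrations. TGI marks complete inhibition of growth.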
Assays:
Test in all cases: growth of human tumour cells (NCI), 48 h
DU-145 prostate = tested on: DU-145 prostate
U251 CNS = tested on: U251 CNS
A498 renal = tested on: A498 renal
NCI-H522 lung = tested on: NCI-H522 lung
SNB-19 CNS = tested on: SNB-19 CNS
OVCAR-5 ovarian = tested on: OVCAR-5 ovarian
OVCAR-3 ovarian = tested on: OVCAR-3 ovarian
MCF7 breast = tested on: MCF7 breast
786-0 renal = tested on: 786-0 renal
K-562 leukemia = tested on: K-562 leukemia

SMILES: O/C(=C\c1nc2ccccc2nc1NC12CC3CC(CC(C3)C1)C2)c1ccc(Br)cc1
- TGI (DU-145 prostate): > 10 µM
- TGI (U251 CNS): > 10 µM
- TGI (A498 renal): > 10 µM
- TGI (NCI-H522 lung): > 10 µM
- TGI (SNB-19 CNS): > 10 µM
- TGI (OVCAR-5 ovarian): > 10 µM
- TGI (OVCAR-3 ovarian): > 10 µM
- TGI (MCF7 breast): > 10 µM
- TGI (786-0 renal): > 10 µM
- TGI (K-562 leukemia): > 10 µM

SMILES: COC(=O)C1(Cc2ccc3c(c2)CCC3)Cc2cc3c(cc2C1)CCC3
- TGI (DU-145 prostate): > 100 µM
- TGI (U251 CNS): > 100 µM
- TGI (A498 renal): > 100 µM
- TGI (NCI-H522 lung): 56.5 µM
- TGI (SNB-19 CNS): > 100 µM
- TGI (OVCAR-5 ovarian): > 100 µM
- TGI (OVCAR-3 ovarian): > 100 µM
- TGI (MCF7 breast): 58.5 µM
- TGI (786-0 renal): > 100 µM
- TGI (K-562 leukemia): > 100 µM

SMILES: COc1cc(OCc2ccc3nc(OC)c(OC)nc3c2)cc(OC)c1OC
- TGI (DU-145 prostate): > 10 µM
- TGI (U251 CNS): > 10 µM
- TGI (A498 renal): > 10 µM
- TGI (NCI-H522 lung): > 10 µM
- TGI (SNB-19 CNS): > 10 µM
- TGI (OVCAR-5 ovarian): > 10 µM
- TGI (OVCAR-3 ovarian): > 10 µM
- TGI (MCF7 breast): > 10 µM
- TGI (786-0 renal): > 10 µM
- TGI (K-562 leukemia): > 10 µM

SMILES: COC(=O)C1(Cc2ccc3c(c2)CCC3)Cc2ccccc2C1=O (stereo not given)
- TGI (DU-145 prostate): 67.8 µM
- TGI (U251 CNS): 37.2 µM
- TGI (A498 renal): 57.9 µM
- TGI (NCI-H522 lung): 31.5 µM
- TGI (SNB-19 CNS): > 100 µM
- TGI (OVCAR-5 ovarian): > 100 µM
- TGI (OVCAR-3 ovarian): > 100 µM
- TGI (MCF7 breast): 70.1 µM
- TGI (786-0 renal): > 100 µM
- TGI (K-562 leukemia): 48.4 µM

SMILES: O=C1CC(Sc2nc3ccc(I)cc3c(=O)n2Cc2ccccc2)C(=O)NN1 (stereo not given)
- TGI (DU-145 prostate): 34.8 µM
- TGI (U251 CNS): 29.4 µM
- TGI (A498 renal): 29.7 µM
- TGI (NCI-H522 lung): 4.26 µM
- TGI (SNB-19 CNS): 39.1 µM
- TGI (OVCAR-5 ovarian): 41.4 µM
- TGI (OVCAR-3 ovarian): 31.2 µM
- TGI (MCF7 breast): 28.2 µM
- TGI (786-0 renal): 28.4 µM
- TGI (K-562 leukemia): 50.5 µM

SMILES: CC1C(c2ccc3c(c2)OCO3)c2cc3c(cc2OC1N1CCOCC1)OCO3 (stereo not given)
- TGI (DU-145 prostate): > 100 µM
- TGI (U251 CNS): > 83.8 µM
- TGI (A498 renal): 65.6 µM
- TGI (NCI-H522 lung): 31.1 µM
- TGI (SNB-19 CNS): 86.5 µM
- TGI (OVCAR-5 ovarian): > 100 µM
- TGI (OVCAR-3 ovarian): > 93.8 µM
- TGI (MCF7 breast): 65.8 µM
- TGI (786-0 renal): > 100 µM
- TGI (K-562 leukemia): 67.7 µM

SMILES: C=C1C(=O)OC2/C=C(/C)C3(O)OC(C)(CC(OC(=O)C(C)C)C12)CC3OC(C)=O (stereo not given)
- TGI (DU-145 prostate): > 69.6 µM
- TGI (U251 CNS): 38.2 µM
- TGI (A498 renal): 15.5 µM
- TGI (NCI-H522 lung): 6.25 µM
- TGI (SNB-19 CNS): 36.6 µM
- TGI (OVCAR-5 ovarian): 65.9 µM
- TGI (OVCAR-3 ovarian): 29.8 µM
- TGI (MCF7 breast): 26.3 µM
- TGI (786-0 renal): > 100 µM
- TGI (K-562 leukemia): > 100 µM

SMILES: N#CCCN(CCC#N)c1ccc(/C=C2\SC(=S)NC2=O)cc1Br
- TGI (DU-145 prostate): > 100 µM
- TGI (U251 CNS): 35.1 µM
- TGI (A498 renal): > 100 µM
- TGI (NCI-H522 lung): > 100 µM
- TGI (SNB-19 CNS): 56.3 µM
- TGI (OVCAR-5 ovarian): > 100 µM
- TGI (OVCAR-3 ovarian): > 100 µM
- TGI (MCF7 breast): > 100 µM
- TGI (786-0 renal): > 100 µM
- TGI (K-562 leukemia): > 100 µM

SMILES: O=C(CCCN1CCC2(CC1)C(=NC1CCCCC1)NC(=O)N2c1ccccc1)c1ccc(F)cc1
- TGI (DU-145 prostate): > 100 µM
- TGI (U251 CNS): 81.1 µM
- TGI (A498 renal): 34.1 µM
- TGI (NCI-H522 lung): 51.3 µM
- TGI (SNB-19 CNS): > 100 µM
- TGI (OVCAR-5 ovarian): 55 µM
- TGI (OVCAR-3 ovarian): 31.6 µM
- TGI (MCF7 breast): 33.1 µM
- TGI (786-0 renal): 45 µM
- TGI (K-562 leukemia): > 100 µM

SMILES: Cc1cn2c(C)csc2c1P(=O)(OC(C)C)OC(C)C
- TGI (DU-145 prostate): > 100 µM
- TGI (U251 CNS): > 100 µM
- TGI (A498 renal): > 100 µM
- TGI (NCI-H522 lung): > 100 µM
- TGI (SNB-19 CNS): > 100 µM
- TGI (OVCAR-5 ovarian): > 100 µM
- TGI (OVCAR-3 ovarian): > 100 µM
- TGI (MCF7 breast): > 100 µM
- TGI (786-0 renal): > 100 µM
- TGI (K-562 leukemia): > 100 µM

SMILES: O=C(CCc1cccc(O)c1)NCCCNC(=O)CCc1cccc(O)c1
- TGI (DU-145 prostate): > 100 µM
- TGI (U251 CNS): > 100 µM
- TGI (A498 renal): > 100 µM
- TGI (NCI-H522 lung): > 100 µM
- TGI (SNB-19 CNS): > 100 µM
- TGI (OVCAR-5 ovarian): > 100 µM
- TGI (OVCAR-3 ovarian): > 100 µM
- TGI (MCF7 breast): > 100 µM
- TGI (786-0 renal): > 100 µM
- TGI (K-562 leukemia): > 100 µM

SMILES: Cn1ccnc1Sc1ccc(C=Nc2ccc3nc(SCC(=O)NC4CCCCC4)sc3c2)cc1[N+](=O)[O-]
- TGI (DU-145 prostate): > 100 µM
- TGI (U251 CNS): 33.9 µM
- TGI (A498 renal): 48.2 µM
- TGI (NCI-H522 lung): > 100 µM
- TGI (SNB-19 CNS): 55.9 µM
- TGI (OVCAR-5 ovarian): > 100 µM
- TGI (OVCAR-3 ovarian): > 100 µM
- TGI (MCF7 breast): > 100 µM
- TGI (786-0 renal): 49 µM
- TGI (K-562 leukemia): > 100 µM

SMILES: C=C(C)[C@@]1(O[Si](C)(C)C)CCCC[C@@H]1CC(Sc1ccccc1)Sc1ccccc1
- TGI (DU-145 prostate): 29.7 µM
- TGI (U251 CNS): 30.7 µM
- TGI (A498 renal): 34.5 µM
- TGI (NCI-H522 lung): 20.4 µM
- TGI (SNB-19 CNS): 30.6 µM
- TGI (OVCAR-5 ovarian): 30.3 µM
- TGI (OVCAR-3 ovarian): 27.7 µM
- TGI (MCF7 breast): 27.6 µM
- TGI (786-0 renal): 28.6 µM
- TGI (K-562 leukemia): 41.2 µM

SMILES: N#CC(=N)c1ncn(-c2ccccc2N)c1N
- TGI (DU-145 prostate): > 100 µM
- TGI (U251 CNS): > 100 µM
- TGI (A498 renal): > 100 µM
- TGI (NCI-H522 lung): > 100 µM
- TGI (SNB-19 CNS): > 100 µM
- TGI (OVCAR-5 ovarian): > 100 µM
- TGI (OVCAR-3 ovarian): > 100 µM
- TGI (MCF7 breast): > 100 µM
- TGI (786-0 renal): > 100 µM
- TGI (K-562 leukemia): > 100 µM

SMILES: COc1c(O)c(O)cc2c1-c1ccc(OC)c(=O)cc1C(NC(C)=O)CC2 (stereo not given)
- TGI (DU-145 prostate): 40.6 µM
- TGI (U251 CNS): 28.9 µM
- TGI (A498 renal): 89 µM
- TGI (NCI-H522 lung): 3.5 µM
- TGI (SNB-19 CNS): > 100 µM
- TGI (OVCAR-5 ovarian): 80.6 µM
- TGI (OVCAR-3 ovarian): 5.77 µM
- TGI (MCF7 breast): 11.9 µM
- TGI (786-0 renal): 74.8 µM
- TGI (K-562 leukemia): 19.2 µM

SMILES: CC(C)(C)C(=O)C(Cc1ccccc1)C(=O)C(C)(C)C
- TGI (DU-145 prostate): > 100 µM
- TGI (U251 CNS): > 100 µM
- TGI (A498 renal): > 100 µM
- TGI (NCI-H522 lung): > 100 µM
- TGI (SNB-19 CNS): > 100 µM
- TGI (OVCAR-5 ovarian): > 100 µM
- TGI (OVCAR-3 ovarian): > 100 µM
- TGI (MCF7 breast): > 100 µM
- TGI (786-0 renal): > 100 µM
- TGI (K-562 leukemia): > 100 µM

SMILES: CC1=C[C@@H](C)C[C@]2(C)CC[C@H](O2)[C@]23CC[C@](C(=O)O)(C[C@H](O2)[C@@H]2O[C@@](C)(CC2=O)[C@@H](O)[C@H]2CC[C@@]4(CCC[C@@H](O4)[C@H](C)C(=O)O[C@H]4C[C@H]([C@]5(O)OCC[C@H](C)[C@@H]5O)O[C@H]4C=C1)O2)O3
- TGI (DU-145 prostate): > 10 µM
- TGI (U251 CNS): > 10 µM
- TGI (A498 renal): > 10 µM
- TGI (NCI-H522 lung): > 10 µM
- TGI (SNB-19 CNS): > 10 µM
- TGI (OVCAR-5 ovarian): > 10 µM
- TGI (OVCAR-3 ovarian): > 10 µM
- TGI (MCF7 breast): > 10 µM
- TGI (786-0 renal): > 10 µM
- TGI (K-562 leukemia): > 10 µM
